Results taken from PubChem BioAssay AID2060333 (Molecular Pharmacology Branch, DTP, NCI, 2025).
pIC50: −log10 of the molar value.

Test system: 845751-090-R-J2-PDC tumor spheroid viability
Assay: Anticancer human tumor 845751-090-R-J2-PDC patient-derived head and neck squamous carcinoma cell line growth inhibition [IpAb]
Conditions: spheroids with HUVEC and MSC; for pIC50: curve of first compound; for viability, T/C: stronger effect = lower value
Excerpt: Combinatorial screen of targeted agents with ipatasertib and abemaciclib in multi-cell type tumor spheroids
A high-throughput screen of multi-cell type tumor spheroids was designed to identify active combinations of targeted small molecules and ipatasertib or abemaciclib. Complex spheroids include a stromal component modeled by human endothelial cells (HUVEC) and fibroblasts modeled by human mesenchymal stem cells (MSCs). The concentration ranges selected for each drug and investigational agent were based upon clinically achievable concentrations if the clinical Cmax of the agent was known.
Compounds. The drugs and investigational agents: ipatasertib (NSC767898), abemaciclib(NSC768073), selumetinib (NSC741078), trametinib (758246), adavosertib (NSC754352), everolimus (NSC733504), sapanisertib (NSC764658), vemurafenib (NSC761431), venetoclax (NSC766270), copanlisib (NSC809693), apelisib (NSC765974), palbociblib (NSC758247), vemurafenib (NSC761431), dabrafenib (NSC764134), ravoxertinib (NSC781343), BMS-387032 (NSC767048), sotorasib (NSC818433), talazoparib (NSC767125) and afursertib (NSC778305), were obtained from the National Cancer Institute (NCI) Developmental Therapeutics Program Chemical Repository. The FDA-approved anticancer drug set is available from the NCI Developmental Therapeutics Program. […] The stock solutions were prepared in dimethyl sulfoxide (DMSO, Sigma-Aldrich, St. Louis, MO, cat. D2650) at 800-fold the tested concentration and stored at -70 degrees C prior to their use. All drugs and investigational agents were tested over a range starting from a high concentration at or near the clinical Cmax and decreasing in half-log increments. If the clinical Cmax for an agent had not been determined, the highest concentration tested was 10 microM.
NCI60 Cell Culture. NCI60 cell lines were obtained from the NCI Developmental Therapeutics Program Tumor Repository. For each lot of cells, the Repository performed Applied Biosystems AmpFLSTR Identifiler testing with PCR amplification to confirm consistency with the published Identifier STR profile for each cell line. Cells were kept in continuous culture for no more than 20 passages. The optimal seeding densities for each of the cell lines at each time point assessed were determined prior to performing the concentration response studies. Briefly, the NCI60 human tumor lines were grown as monolayers in RPMI 1640 medium supplemented with 10% FBS and 2 mmol/L L-glutamine.
An additional 9 lines were from the NCI60 cell line panel including MDA-MB-231 breast carcinoma, MDA-MB-468 breast carcinoma, MCF7 breast carcinoma, Hs578T breast carcinoma, MALME-3M melanoma, SK-MEL-2 melanoma, SK-OV-3 ovarian carcinoma, DU-145 prostate carcinoma, PC-3 prostate carcinoma, all cell lines along with major genetic alterations are listed on Table 2. Pooled donor human umbilical vein endothelial cells (HUVEC, Lonza, cat. CC-2519) and human mesenchymal stem cells (hMSC, Lonza, cat. PT-2501) were purchased from Lonza (Walkersville, MD).
PDMR cell lines were grown in complete medium (DC medium): Dulbecco's modified Eagle's medium (DMEM)/F12 supplemented with 5% fetal bovine serum (FBS), 2 mM L-glutamine, 100 U/mL penicillin and 100 µg/ml streptomycin, 0.4 µg/ml hydrocortisone, 10 ng/ml epidermal growth factor (EGF) recombinant human protein, 24 µg/mL adenine, and 0.1 mg/mL primocin. During culture from frozen stock vials, PDMR cells were cultured in the same medium containing 10 µM Y-27632 (see Table 3). The PDCs were cultured in complete DMEM/F12 media without 10 microM Y-27632 dihydrochloride for at least two passages prior to the screen. The pooled donor HUVEC and hMSC were cultured in endothelial cell growth medium 2 (PromoCell, Heidelberg, Germany, cat. C-22011) and mesenchymal stem cell growth medium 2 (PromoCell, cat. C-28009), respectively. For all experiments, HUVEC and hMSC were used at passages </=5.
[…]
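Also: spheroids exposed to compounds for 7 days before readout.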
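For viability, T/C in this document: CTG3D luminescence normalised so that 100% = DMSO vehicle control.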

CC(=O)c1c(C)c2cnc(Nc3ccc(N4CCNCC4)cn3)nc2n(C2CCCC2)c1=O + CCN1CCN(Cc2ccc(Nc3ncc(F)c(-c4cc(F)c5nc(C)n(C(C)C)c5c4)n3)nc2)CC1 showed a pIC50 (second compound 0.01 µM) of less than 6.52, a pIC50 (second compound 0.0316 µM) of less than 6.52 and a pIC50 (second compound 0.1 µM) of less than 6.52. It also gave a pIC50 (second compound 0.316 µM) of less than 6.52, a pIC50 (second compound 1 µM) of less than 6.52 and a viability, T/C (second compound 0.01 µM, first compound 0.000949 µM) of 115%. It also gave a viability, T/C (second compound 0.01 µM, first compound 0.003 µM) of 93.8%, a viability, T/C (second compound 0.01 µM, first compound 0.00949 µM) of 84.8% and a viability, T/C (second compound 0.01 µM, first compound 0.03 µM) of 91%. The viability, T/C (second compound 0.01 µM, first compound 0.0949 µM) was 93.4%, the viability, T/C (second compound 0.01 µM, first compound 0.3 µM) was 76.7% and the viability, T/C (second compound 0.0316 µM, first compound 0.000949 µM) was 77.2%. For the same molecule, the viability, T/C (second compound 0.0316 µM, first compound 0.003 µM) was 62.8%, the viability, T/C (second compound 0.0316 µM, first compound 0.00949 µM) was 63.6% and the viability, T/C (second compound 0.0316 µM, first compound 0.03 µM) was 73.9%. It also gave a viability, T/C (second compound 0.0316 µM, first compound 0.0949 µM) of 65.5%, a viability, T/C (second compound 0.0316 µM, first compound 0.3 µM) of 59.2% and a viability, T/C (second compound 0.1 µM, first compound 0.000949 µM) of 49.8%. It also gave a viability, T/C (second compound 0.1 µM, first compound 0.003 µM) of 71.8%, a viability, T/C (second compound 0.1 µM, first compound 0.00949 µM) of 75.4% and a viability, T/C (second compound 0.1 µM, first compound 0.03 µM) of 71.2%. It also gave a viability, T/C (second compound 0.1 µM, first compound 0.0949 µM) of 75.9%, a viability, T/C (second compound 0.1 µM, first compound 0.3 µM) of 65.8% and a viability, T/C (second compound 0.316 µM, first compound 0.000949 µM) of 53.1%. For the same molecule, the viability, T/C (second compound 0.316 µM, first compound 0.003 µM) was 69.7%, the viability, T/C (second compound 0.316 µM, first compound 0.00949 µM) was 88% and the viability, T/C (second compound 0.316 µM, first compound 0.03 µM) was 81.7%. For the same molecule, the viability, T/C (second compound 0.316 µM, first compound 0.0949 µM) was 61%, the viability, T/C (second compound 0.316 µM, first compound 0.3 µM) was 50.6% and the viability, T/C (second compound 1 µM, first compound 0.000949 µM) was 90.4%. The viability, T/C (second compound 1 µM, first compound 0.003 µM) was 86.4%, the viability, T/C (second compound 1 µM, first compound 0.00949 µM) was 99.5% and the viability, T/C (second compound 1 µM, first compound 0.03 µM) was 77.7%. It also gave a viability, T/C (second compound 1 µM, first compound 0.0949 µM) of 70.9% and a viability, T/C (second compound 1 µM, first compound 0.3 µM) of 53.6%.

In the case of Cc1nc(NC(=O)N2CCCC2C(N)=O)sc1-c1ccnc(C(C)(C)C(F)(F)F)c1 (stereo not given) + CCN1CCN(Cc2ccc(Nc3ncc(F)c(-c4cc(F)c5nc(C)n(C(C)C)c5c4)n3)nc2)CC1, the pIC50 (second compound 0.01 µM) was 7.00, the pIC50 (second compound 0.0316 µM) was 7.12 and the pIC50 (second compound 0.1 µM) was greater than 7.50. It also gave a pIC50 (second compound 0.316 µM) of 7.44, a pIC50 (second compound 1 µM) of 6.94 and a viability, T/C (second compound 0.01 µM, first compound 0.0316 µM) of 69.5%. It also gave a viability, T/C (second compound 0.01 µM, first compound 0.1 µM) of 46.2%, a viability, T/C (second compound 0.01 µM, first compound 0.316 µM) of 37.3% and a viability, T/C (second compound 0.01 µM, first compound 1 µM) of 28.9%. The viability, T/C (second compound 0.01 µM, first compound 3.16 µM) was 12.9%, the viability, T/C (second compound 0.01 µM, first compound 10 µM) was 11.6% and the viability, T/C (second compound 0.0316 µM, first compound 0.0316 µM) was 62.1%. The viability, T/C (second compound 0.0316 µM, first compound 0.1 µM) was 41.9%, the viability, T/C (second compound 0.0316 µM, first compound 0.316 µM) was 40.9% and the viability, T/C (second compound 0.0316 µM, first compound 1 µM) was 22.5%. The viability, T/C (second compound 0.0316 µM, first compound 3.16 µM) was 15.5%, the viability, T/C (second compound 0.0316 µM, first compound 10 µM) was 10.9% and the viability, T/C (second compound 0.1 µM, first compound 0.0316 µM) was 41.8%. For the same molecule, the viability, T/C (second compound 0.1 µM, first compound 0.1 µM) was 43.6%, the viability, T/C (second compound 0.1 µM, first compound 0.316 µM) was 27.4% and the viability, T/C (second compound 0.1 µM, first compound 1 µM) was 20.8%. The viability, T/C (second compound 0.1 µM, first compound 3.16 µM) was 14.7%, the viability, T/C (second compound 0.1 µM, first compound 10 µM) was 10.1% and the viability, T/C (second compound 0.316 µM, first compound 0.0316 µM) was 51.2%. For the same molecule, the viability, T/C (second compound 0.316 µM, first compound 0.1 µM) was 39.8%, the viability, T/C (second compound 0.316 µM, first compound 0.316 µM) was 25.9% and the viability, T/C (second compound 0.316 µM, first compound 1 µM) was 20.9%. The viability, T/C (second compound 0.316 µM, first compound 3.16 µM) was 17.9%, the viability, T/C (second compound 0.316 µM, first compound 10 µM) was 12.4% and the viability, T/C (second compound 1 µM, first compound 0.0316 µM) was 54.9%. For the same molecule, the viability, T/C (second compound 1 µM, first compound 0.1 µM) was 50.5%, the viability, T/C (second compound 1 µM, first compound 0.316 µM) was 42.4% and the viability, T/C (second compound 1 µM, first compound 1 µM) was 24.1%. For the same molecule, the viability, T/C (second compound 1 µM, first compound 3.16 µM) was 18.7% and the viability, T/C (second compound 1 µM, first compound 10 µM) was 11.3%.
